Results reported in ChEMBL document CHEMBL5131455 (Bioorg Med Chem Lett, 2022).
≈ marks a conversion by molar mass, not a printed value. Blank lines part the entries; values can stand above or below the compound they belong to.

How the values were obtained:
[1] = AUC in rat plasma at 30 mg/kg, po in presence of [14-C]asciminib relative to radioactivity of [14-C] AUC; type: ADME, organism-based; details: in vivo
[2] = target: Voltage-gated inwardly rectifying potassium channel KCNH2 (Homo sapiens, UniProt Q12809); assay: Displacement of [3H]dofetilide from human ERG expressed in HEK293 cells measured after 45 mins by topcount scintillation counting method; type: toxicity, cell-based
Sequence of Voltage-gated inwardly rectifying potassium channel KCNH2 (Q12809 whole entry): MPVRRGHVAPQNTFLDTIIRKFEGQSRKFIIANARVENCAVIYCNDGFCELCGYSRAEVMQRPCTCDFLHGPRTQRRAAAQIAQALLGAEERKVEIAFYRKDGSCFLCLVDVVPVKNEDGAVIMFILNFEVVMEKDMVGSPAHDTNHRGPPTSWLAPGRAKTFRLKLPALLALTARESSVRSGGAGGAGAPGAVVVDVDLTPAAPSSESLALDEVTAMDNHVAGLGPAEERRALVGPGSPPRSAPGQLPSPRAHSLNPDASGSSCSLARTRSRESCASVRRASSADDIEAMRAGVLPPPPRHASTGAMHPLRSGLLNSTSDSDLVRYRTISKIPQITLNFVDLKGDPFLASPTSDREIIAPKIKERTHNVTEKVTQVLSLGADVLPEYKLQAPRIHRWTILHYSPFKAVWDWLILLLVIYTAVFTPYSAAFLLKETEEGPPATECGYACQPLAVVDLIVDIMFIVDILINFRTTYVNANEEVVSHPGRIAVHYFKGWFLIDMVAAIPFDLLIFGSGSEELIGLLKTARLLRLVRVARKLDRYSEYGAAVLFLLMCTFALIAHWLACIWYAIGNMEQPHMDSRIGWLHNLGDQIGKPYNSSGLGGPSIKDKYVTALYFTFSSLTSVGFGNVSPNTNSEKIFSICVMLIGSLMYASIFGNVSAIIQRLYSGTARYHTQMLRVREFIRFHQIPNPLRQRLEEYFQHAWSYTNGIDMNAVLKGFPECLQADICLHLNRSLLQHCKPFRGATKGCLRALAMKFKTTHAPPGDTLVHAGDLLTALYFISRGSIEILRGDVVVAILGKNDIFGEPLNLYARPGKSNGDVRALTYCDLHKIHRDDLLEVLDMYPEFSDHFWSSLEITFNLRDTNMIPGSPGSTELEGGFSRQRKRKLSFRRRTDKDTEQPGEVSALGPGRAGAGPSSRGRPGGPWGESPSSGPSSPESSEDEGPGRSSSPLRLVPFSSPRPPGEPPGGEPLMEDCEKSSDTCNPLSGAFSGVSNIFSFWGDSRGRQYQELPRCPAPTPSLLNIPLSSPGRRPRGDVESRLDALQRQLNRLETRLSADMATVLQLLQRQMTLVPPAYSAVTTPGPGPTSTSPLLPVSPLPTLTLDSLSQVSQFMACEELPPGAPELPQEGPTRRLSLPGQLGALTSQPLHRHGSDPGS

[3] = Intrinsic clearance in human liver microsomes; type: ADME, Microsome; details: read-out: CLH
[4] = Dose normalized AUC (infinity) in C57BL/6 mouse brain at 30 mg/kg, ip; type: ADME, organism-based; details: in vivo
[5] = Intrinsic clearance in mouse liver microsomes; type: ADME, Microsome; details: read-out: CLH
Mu-type opioid receptor [6] = target: T1, Mu-type opioid receptor (Homo sapiens, UniProt P35372); assay: Displacement of [3H]morphine binding to recombinant human full-length MOR expressed in CHO-K1 cells at 30 uM measured after 60 mins by scintillation counting analysis relative to control; type: cell-based
T1 sequence (P35372 whole entry): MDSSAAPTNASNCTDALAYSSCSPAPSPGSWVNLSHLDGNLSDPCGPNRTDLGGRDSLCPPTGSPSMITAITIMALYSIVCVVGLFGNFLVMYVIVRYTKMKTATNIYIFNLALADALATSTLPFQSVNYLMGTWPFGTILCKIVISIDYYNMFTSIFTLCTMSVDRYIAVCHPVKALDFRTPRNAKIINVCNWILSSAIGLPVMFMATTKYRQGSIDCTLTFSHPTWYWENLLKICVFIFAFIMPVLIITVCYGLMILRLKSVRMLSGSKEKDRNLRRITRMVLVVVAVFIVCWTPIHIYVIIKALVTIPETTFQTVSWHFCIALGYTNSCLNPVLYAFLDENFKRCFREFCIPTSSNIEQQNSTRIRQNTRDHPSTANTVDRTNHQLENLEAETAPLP

[7] = Ratio of drug level in C57BL/6 mouse brain at 30 mg/kg, ip to IC50 for antiproliferative activity against mouse BaF3 cells expressing BCR-ABL by ATP-luminescence assay; type: organism-based; details: in vivo
[8] = Solubility of the compound in pH 1 0.1N HCl buffer incubated up to 72 hrs by shake flask method; type: physicochemical
[9] = Tmax in C57BL/6 mouse at 30 mg/kg, ip; type: ADME, organism-based; details: in vivo
MDR1 = assay: Efflux ratio of apparent permeability across basolateral to apical side over apical to basolateral side in MDCK-MDR1 cells; type: ADME, cell-based, Canis lupus familiaris; details: dog
BaF3 = assay: Antiproliferative activity against mouse BaF3 cells expressing BCR-ABL by ATP-luminescence assay; type: functional, cell-based
[10] = Solubility of the compound in chloride free pH 6.8 phosphate buffer incubated up to 72 hrs by shake flask method; type: physicochemical
[11] = Efflux ratio of apparent permeability across basolateral to apical side over apical to basolateral side in human Caco2 cells; type: ADME, cell-based; details: Caco-2
[12] = Unbound brain to plasma concentration ratio in C57BL/6 mouse brain at 30 mg/kg, ip; type: ADME, organism-based; details: brain and plasma, read-out: K(p,uu,brain)
[13] = Intrinsic clearance in rat liver microsomes; type: ADME, Microsome; details: read-out: CLH
[14] = Antiproliferative activity against human CMK-86 cells measured after 72 hrs by celltiter-glo luminescent cell viability assay; type: functional, cell-based
[15] = Ratio of drug level in C57BL/6 mouse blood to brain at 1 mg/kg, iv measured after 5 mins; type: ADME, organism-based; details: in vivo
Mu-type opioid receptor [16] = target: T1, Mu-type opioid receptor; assay: Displacement of [3H]morphine binding to recombinant human full-length MOR expressed in CHO-K1 cells measured after 60 mins by scintillation counting analysis; type: cell-based
[17] = Half life in C57BL/6 mouse at 1 mg/kg, iv; type: ADME, organism-based; details: in vivo
[18] = Dose normalized AUC (infinity) in C57BL/6 mouse blood at 30 mg/kg, ip; type: ADME, organism-based; details: in vivo
[19] = Tmax in C57BL/6 mouse at 30 mg/kg, po; type: ADME, organism-based; details: in vivo
[20] = Antiproliferative activity against human SNU-213 cells measured after 72 hrs by celltiter-glo luminescent cell viability assay; type: functional, cell-based
[21] = Apparent permeability across basolateral to apical side in human Caco-2 cells; type: ADME, cell-based
[22] = Drug level in C57BL/6 mouse brain at 30 mg/kg, ip measured at 4 hrs; type: ADME, organism-based; details: read-out: Drug uptake
[23] = Antiproliferative activity against human Fu97 cells measured after 72 hrs by celltiter-glo luminescent cell viability assay; type: functional, cell-based
[24] = Clearance in C57BL/6 mouse at 1 mg/kg, iv; type: ADME, organism-based; details: in vivo
[25] = Ratio of drug level in C57BL/6 mouse blood to brain at 10 mg/kg, ip measured at 4 hrs; type: ADME, organism-based; details: in vivo
hERG (KCNH2) = hERG (KCNH2) (Homo sapiens, UniProt Q12809); assay: Displacement of [3H]dofetilide from human ERG expressed in HEK293 cells at 30 uM measured after 45 mins by topcount scintillation counting method relative to control; type: toxicity, cell-based; details: HEK293 cells that express hERG, probe [3H]dofetilide
Sequence of hERG (KCNH2) (Q12809 whole entry): as the sequence (Q12809 whole entry) above

[26] = Intrinsic clearance in dog liver microsomes; type: ADME, Canis lupus familiaris, Microsome; details: read-out: CLH
[27] = Dose normalized AUC (infinity) in C57BL/6 mouse brain at 10 mg/kg, ip measured up to 4 hrs; type: ADME, organism-based; details: in vivo
[28] = target: Tyrosine-protein kinase ABL1 (Homo sapiens, UniProt P00519); assay: Inhibition of transphosphorylation of ABL1 SH1-3 domain (64 to 515 residues) (unknown origin) expressed in Escherichia coli using FITC-Ahx-EAIYAAPFAKKK-NH2) as substrate measured after 60 mins by caliper method
Sequence of Tyrosine-protein kinase ABL1 (P00519 whole entry, the tested form may be a part): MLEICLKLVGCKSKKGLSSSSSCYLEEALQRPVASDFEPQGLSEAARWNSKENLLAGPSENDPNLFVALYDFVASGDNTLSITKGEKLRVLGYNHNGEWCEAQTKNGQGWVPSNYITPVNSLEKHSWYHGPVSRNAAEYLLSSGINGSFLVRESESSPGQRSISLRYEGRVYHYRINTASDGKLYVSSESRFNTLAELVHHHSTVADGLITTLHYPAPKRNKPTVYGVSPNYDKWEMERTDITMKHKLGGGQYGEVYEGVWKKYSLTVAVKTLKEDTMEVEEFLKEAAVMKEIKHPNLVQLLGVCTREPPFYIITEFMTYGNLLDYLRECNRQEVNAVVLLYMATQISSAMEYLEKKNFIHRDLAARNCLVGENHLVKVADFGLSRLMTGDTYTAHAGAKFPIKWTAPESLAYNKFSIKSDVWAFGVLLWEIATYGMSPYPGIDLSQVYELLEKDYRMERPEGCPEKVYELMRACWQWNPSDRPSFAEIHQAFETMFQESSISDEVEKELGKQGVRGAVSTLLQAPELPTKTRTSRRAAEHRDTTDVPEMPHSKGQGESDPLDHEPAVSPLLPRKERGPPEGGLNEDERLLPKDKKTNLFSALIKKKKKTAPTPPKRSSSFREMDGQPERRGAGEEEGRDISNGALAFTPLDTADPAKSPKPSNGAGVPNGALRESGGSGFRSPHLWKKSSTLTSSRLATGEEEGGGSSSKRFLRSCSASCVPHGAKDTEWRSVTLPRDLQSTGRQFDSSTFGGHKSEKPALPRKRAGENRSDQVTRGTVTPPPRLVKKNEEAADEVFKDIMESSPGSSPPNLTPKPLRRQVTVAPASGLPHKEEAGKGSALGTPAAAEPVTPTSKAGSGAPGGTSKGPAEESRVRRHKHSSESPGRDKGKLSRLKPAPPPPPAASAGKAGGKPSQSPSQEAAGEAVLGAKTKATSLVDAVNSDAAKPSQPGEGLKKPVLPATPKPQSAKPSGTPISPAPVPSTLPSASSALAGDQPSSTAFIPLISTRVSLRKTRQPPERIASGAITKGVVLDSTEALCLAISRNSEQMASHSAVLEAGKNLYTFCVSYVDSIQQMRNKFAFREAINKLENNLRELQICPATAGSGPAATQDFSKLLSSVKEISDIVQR

[29] = Dose normalized Cmax in C57BL/6 mouse at 30 mg/kg, ip; type: ADME, organism-based; details: in vivo
[30] = Apparent permeability across apical to basolateral side in human Caco-2 cells; type: ADME, cell-based
[31] = Dose normalized AUC (infinity) in C57BL/6 mouse blood at 30 mg/kg, po; type: ADME, organism-based; details: in vivo
[32] = Dose normalized Cmax in C57BL/6 mouse at 30 mg/kg, po; type: ADME, organism-based; details: in vivo
[33] = Volume of distribution at steady state in C57BL/6 mouse at 1 mg/kg, iv; type: ADME, organism-based; details: in vivo, read-out: Vdss
[34] = Apparent permeability in MDCK cells; type: ADME, cell-based, Canis lupus familiaris; details: dog, MDCK-MDR1
[35] = Dose normalized AUC (infinity) in C57BL/6 mouse at 1 mg/kg, iv; type: ADME, organism-based; details: in vivo
[36] = Ratio of drug level in C57BL/6 mouse blood to brain at 30 mg/kg, ip measured at 4 hrs; type: ADME, organism-based; details: in vivo
[37] = Antiproliferative activity against human KBM-7 cells measured after 72 hrs by celltiter-glo luminescent cell viability assay; type: functional, cell-based
[38] = AUC (0 to 8 hrs) in human plasma at 80 mg, po qd administered as water suspension by HPLC analysis relative to radioactivity of 14-C AUC; type: ADME, organism-based; details: in vivo
[39] = Drug uptake in female rat central nervous system at 30 mg/kg, po; type: ADME, organism-based; details: in vivo
[40] = Drug uptake in male rat central nervous system at 30 mg/kg, po; type: ADME, organism-based; details: in vivo, BLD = below limit of detection
[41] = AUC (0 to 8 hrs) in rat plasma at 30 mg/kg, po relative to radioactivity of 14-C AUC; type: ADME, organism-based; details: in vivo

Drug uptake [1]: 1.88%
SMILES: O=C1CCN(c2ncc(C(=O)Nc3ccc(OC(F)(F)Cl)cc3)cc2-c2ccn[nH]2)C1

CLint scaled [3]: 16 mL/min/kg
AUC/dose [4]: 27926 nM·h
CLint scaled [5]: 31 mL/min/kg
inhibition (Mu-type opioid receptor [6]): > 50%
solubility thermodynamic at 72 h [8]: > 1500 µg/mL
Tmax [9]: 1.8 h
efflux ratio (MDR1): 1.03
GI50 (BaF3): 69 nM
IC50 (BaF3): 75 nM
solubility thermodynamic at 72 h [10]: 3 µg/mL (≈ 8.35 µM)
efflux ratio [11]: 0.41
Kp uu [12]: 0.91
CLint scaled [13]: 56 mL/min/kg
Ratio [15]: 3.29
AC50 (Mu-type opioid receptor [16]): 9780 nM
half-life [17]: 0.9 h
AUC/dose [18]: 6672 nM·h
Tmax [19]: 1 h
Papp B→A [21]: 11.1 ×10⁻⁶ cm/s
concentration at 4 h [22]: 34.9 µM
clearance [24]: 17 mL/min/kg
Ratio [25]: 2.32
CLint scaled [26]: 30 mL/min/kg
AUC/dose [27]: 15720 nM·h
IC50 [28]: 33 nM
Cmax/dose [29]: 0.643 µM
Papp A→B [30]: 27.1 ×10⁻⁶ cm/s
AUC/dose [31]: 5139 nM·h
Cmax/dose [32]: 0.629 µM
Vd [33]: 1.2 L/kg
Papp [34]: 24.5 ×10⁻⁶ cm/s
AUC/dose [35]: 2875 nM·h
Ratio [36]: 2.65
SMILES: O=C(Nc1ccc(OC(F)(F)F)cc1)c1cncc(-c2cccnc2)c1
AC50 [2]: 2800 nM
Ratio [7]: 465
IC50 ([14]; Homo sapiens, CMK-86, 72 h): 1600 nM
%max ([14]; time 72 hrs): 62%
IC50 ([20]; Homo sapiens, SNU-213, 72 h): 25000 nM
%max ([20]; time 72 hrs): 62%
IC50 ([23]; Homo sapiens, Fu97, 72 h): > 30000 nM
%max ([23]; time 72 hrs): 55%
inhibition at 0.75 h, 30 µM (hERG (KCNH2)): > 50%
IC50 ([37]; Homo sapiens, KBM-7, 72 h): 197 nM
%max ([37]; time 72 hrs): 98%

Drug uptake [38]: 92.7%
Drug uptake [39]: Active
solubility thermodynamic at 72 h [8]: > 1500 µg/mL
solubility thermodynamic at 72 h [10]: 4 µg/mL (≈ 8.89 µM)
Drug uptake [40]: Bld
Papp [34]: 21.1 ×10⁻⁶ cm/s
Drug uptake [41]: 86%
SMILES: O=C(Nc1ccc(OC(F)(F)Cl)cc1)c1cnc(N2CC[C@@H](O)C2)c(-c2ccn[nH]2)c1 [ASCIMINIB]

Drug uptake [1]: 0.39%
SMILES: O=C(Nc1ccc(OC(F)(F)Cl)cc1)c1cnc(NCCC(O)CO)c(-c2ccn[nH]2)c1 (stereo not drawn)
